Our source for the Kd values is ChEMBL document CHEMBL5729782, “6-heteroaryloxy benzimidazoles and azabenzimidazoles as JAK2 inhibitors” (2023).

Structures are written as SMILES. Where “and” joins values, the source holds several entries; their conditions need not be identical. Equal entries are not always repeated. A value given as a limit tells only on which side of the number the result lay.

The nature of the test: Streptavidin-coated magnetic beads were treated with biotinylated small molecule ligands for 30 minutes at room temperature to generate affinity resins for kinase assays. The liganded beads were blocked with excess biotin and washed with blocking buffer (SeaBlock (Pierce), 1% BSA, 0.05% Tween 20, 1 mmol/L DTT) to remove unbound ligand and to reduce nonspecific phage binding. Binding reactions were assembled by combining kinases, liganded affinity beads, and test compounds in 1× binding buffer (1×PBS, 0.05% Tween 20, 0.1% BSA, 1 mmol/L DTT). Test compound was prepared as 111× stocks in 100% DMSO and directly diluted into the assay wells. All reactions were performed in polypropylene 384-well plates in a final volume of 0.02 mL. The assay plates were incubated at room temperature with shaking for 1 hour and the affinity beads were washed with wash buffer (1×PBS, 0.05% Tween 20). The beads were then re-suspended in elution buffer (1×PBS, 0.05% Tween 20, 0.5 μmol/L non-biotinylated affinity ligand) and incubated at room temperature with shaking for 30 minutes. The kinase concentration in the eluate was measured by qPCR. (In general: Real-time PCR tracks product formation cycle by cycle.)
What is called Kd is the free concentration of one partner at which half of the binding sites on the other are occupied at equilibrium, for simple one-to-one binding. Consider `CC(=O)Nc1cc(Oc2cnc3nc(Nc4cc(C(C)(C)C)n([C@H]5CCC[C@@H]5O)n4)n(C)c3c2)ccn1`, for which the Kd result is “in the range around 30 nM”.
With `CC(=O)Nc1cc(Oc2cnc3nc(Nc4cc(C5CC5)cn(C)c4=O)n(C)c3c2Cl)ccn1` the entry was “in the range around 30 nM”; with `COc1c(Oc2ccnc(NC(=O)C3CC3)c2)cnc2nc(Nc3cc(C(C)(C)C)n(C[C@H](C)O)n3)n(C)c12`, < 10 nM; with `CC(=O)Nc1ccc(Oc2cnc3c(c2)nc(Nc2cc(C(C)(C)C)n([C@H]4CCOC4)n2)n3C)cn1`, < 10 nM.
With `CCCCO[C@H]1C[C@@H](n2nc(Nc3nc4ccc(Oc5ccnc(NC(C)=O)c5)cc4n3C)cc2C(C)(C)C)C1` the figure was < 10 nM; with `CC(=O)Nc1cc(Oc2ccc3nc(Nc4cc(C(F)(F)F)cn(C[C@@H]5COCCO5)c4=O)n(C)c3c2)ccn1`, “in the range around 525 nM”.
Next, `CNC(=O)c1cc(Oc2ccc3nc(Nc4cc(C(C)(C)C)nn4C)n(C)c3c2)ccn1`: “in the range around 525 nM”; `COc1c(Oc2ccnc(NC(=O)C3CC3)c2)cnc2nc(Cc3cc(C4CC4)cn(C)c3=O)n(C)c12`: < 10 nM; `COCCN1CC[C@@H](n2nc(NC3Nc4ncc(Oc5ccnc(NC(=O)C6CC6)c5)c(Cl)c4N3C)cc2C(C)(C)C)C1` (some centres not stated): < 10 nM.
Take `COc1c(Oc2ccnc(NC(=O)C3CC3)c2)cnc2nc(Nc3cc(C(C)(C)C)n(C[C@@H](C)O)n3)n(C)c12`: the Kd is < 10 nM.
As to `CO[C@H]1CCC1Cn1cc(C2CC2)cc(Nc2nc3ccc(Oc4ccnc(NC(C)=O)c4)cc3n2C)c1=O` (some centres not stated), the Kd was < 10 nM.
With `CC(=O)Nc1cc(Oc2cnc3nc(NC4=CC(C(F)(F)F)=CC(C)C4=O)n(C)c3c2Cl)ccn1` (configuration not stated) the figure was < 10 nM; with `CC(=O)Nc1cc(Oc2cnc3nc(Nc4cc(C(C)C)n(CCF)n4)n(C)c3c2)ccn1`, < 10 nM; with `COc1c(Oc2ccnc(NC(C)=O)c2)cnc2nc(Nc3nc([C@H]4CCOC4)c(C(C)(C)C)s3)n(C)c12`, < 10 nM.
With `CC(=O)Nc1cc(Oc2cnc3nc(Nc4cc(C(C)C)n(CCC#N)n4)n(C)c3c2C)ccn1` the figure was < 10 nM; with `COc1c(Oc2ccnc(NC(C)=O)c2)cnc2nc(Nc3nc([C@@H]4CCOC4)c(C(C)(C)C)s3)n(C)c12`, < 10 nM; with `CO[C@H]1CCOC[C@@H]1n1cc(C(F)(F)F)cc(Nc2nc3ccc(Oc4ccnc(NC(C)=O)c4)cc3n2C)c1=O`, < 10 nM.
With `CNc1cc(Oc2ccnc(NC(C)=O)c2)cnc1NC(=S)Nc1cc2n(n1)CCCC2(C)C`, the Kd is < 10 nM.
Next, `CC(=O)Nc1cc(Oc2cnc3nc(Nc4cc(C(C)C)n(CC(F)F)n4)n(C)c3c2)ccn1`: < 10 nM.
With `CC(C)(C)OC(=O)N1CC2(CC(n3nc(C(F)(F)F)cc3N)C2)C1` the figure was < 10 nM; with `CC(=O)Nc1cc(Oc2cnc3nc(Nc4cc5n(n4)CCCC5(C)C)n(C)c3c2Cl)ccn1`, < 10 nM.
Next, `CC(=O)Nc1cc(Oc2ccc3nc(Nc4cc(C5CC5)cn(CC5CC[C@@H]5O)c4=O)n(C)c3c2)ccn1` (some centres not stated): < 10 nM; `COc1ccc(Cn2cc(Cc3ccc(Nc4nc5ccc(Oc6ccnc(NC(C)=O)c6)cc5n4C)cc3C(F)(F)F)cn2)cc1`: “in the range around 525 nM”.
As to `CC(=O)Nc1cc(Oc2cnc3nc(Nc4cc(C(C)(C)C)n(C[C@H]5CCN(C)CC5(F)F)n4)n(C)c3c2)ccn1`, the Kd entry was “in the range around 3000 nM”.
With `COc1c(Oc2ccnc(NC(C)=O)c2)cnc2nc(Nc3cc(C(C)(C)C)n(-c4ccn(CC(F)F)c4)n3)n(C)c12` the figure was < 10 nM.
With `CC(=O)Nc1cc(Oc2ccc3nc(Nc4cc(C5CC5)cn(C5CCC5O)c4=O)n(C)c3c2)ccn1` (configuration not stated) the figure was < 10 nM (3×) and in the range around 30 nM; with `CNc1cc(Oc2ccnc(NC(C)=O)c2)cnc1NC(=S)Nc1cc(C2CC2)cn(C)c1=O`, < 10 nM.
